Patent US20090215710A1, “CARBOHYDRATE BASED TOLL-LIKE RECEPTOR (TLR) ANTAGONISTS” (RELIANCE LIFE SCIENCES PVT. LTD., priority 2007, published 2009)

Experiments:
[1] = Cell viability in pre-screen (Table 1); format: cell-based
TNF = assay: Pre-screen for TNF inhibition activity of synthesized molecules (Table 1); format: cell-based

Row | Compound | % Viability ([1]; 1 uM) [%] | % Viability ([1]; 10 uM) [%] | % Viability ([1]; 50 uM) [%] | % Viability ([1]; 100 uM) [%] | % TNF Inhibition (TNF; 1 uM) [%] | % TNF Inhibition (TNF; 10 uM) [%] | % TNF Inhibition (TNF; 50 uM) [%] | % TNF Inhibition (TNF; 100 uM) [%]
1 | 2,3-Di-O-acetyl-4-O-chloroacetyl-6-O-levulinoyl-β-D-glucopyranosyl)-(1-3)-2-deoxy-2-trichloroacetamido-α/β-D-glucopyranoside [RSCL-0632] | 115 | 113 | 94 | 84 | 0 | 0 | 0 | 30
2 | COc1ccc(O[C@@H]2O[C@H](COC(C)=O)[C@@H](OC(C)=O)[C@H](OC(C)=O)[C@H]2OC(C)=O)cc1 [RSCL-0367, 1-O-(p-Methoxyphenyl)-2,3,4,6-tetra-O-acetyl-β-D-Glucopyranoside] | 114 | 118 | 105 | 116 | 0 | 0 | 0 | 0
3 | COc1ccc(O[C@@H]2O[C@@H]3COC(c4ccccc4)O[C@H]3[C@H](O)[C@H]2O)cc1 (stereo partly drawn) [RSCL-0370, 1-O-(p-Methoxyphenyl)-4,6-O-benzylidene-β-D-glucopyranoside] | 115 | 120 | 108 | 107 | 0 | 0 | 0 | 16
4 | COc1ccc(O[C@@H]2O[C@H](COC(=O)CCC(C)=O)[C@@H](OC(=O)CCl)[C@H](OC(C)=O)[C@H]2OC(C)=O)cc1 [RSCL-0393, 1-O-(p-Methoxyphenyl)-2,3-di-O-acetyl-4-O-chloroacetyl-6-O-levulinoyl-β-D-glucopyranoside] | 84 | 85 | 81 | 86 | 2 | 13 | 18 | 76
5 | COc1ccc(O[C@H]2O[C@@H]3COC(c4ccccc4)O[C@H]3[C@H](O)[C@H]2NC(=O)C(Cl)(Cl)Cl)cc1 (stereo partly drawn) [RSCL-0400, 1-O-(p-Methoxyphenyl)-2-deoxy-2-trichloroacetamido-4,6-O-benzylidene-α-D-glucopyranoside] | 93 | 82 | 70 | 63 | 0 | 0 | 0 | 0
6 | COc1ccc(O[C@H]2O[C@@H]3COC(c4ccccc4)O[C@H]3[C@H](O[C@@H]3O[C@H](COC(=O)CCC(C)=O)[C@@H](O)[C@H](OC(C)=O)[C@H]3OC(C)=O)[C@H]2NC(=O)C(Cl)(Cl)Cl)cc1 (stereo partly drawn) [RSCL-0440, p-Methoxy phenyl-O-(2,3-di-O-acetyl-6-O-levulinoyl-β-D-glucopyranosyl)-(1-3)-2-deoxy-2-trichloroacetamido-4,6-O-benzylidene-α D-glucopyranoside] | 114 | 115 | 129 | 119 | 34 | 42 | 46 | 47
7 | COc1ccc(O[C@H]2O[C@@H]3COC(c4ccccc4)O[C@H]3[C@H](O[C@@H]3O[C@H](COC(=O)CCC(C)=O)[C@@H](OS(=O)(=O)O)[C@H](OC(C)=O)[C@H]3OC(C)=O)[C@H]2NC(=O)C(Cl)(Cl)Cl)cc1 (stereo partly drawn) [RSCL-0621, p-Methoxy phenyl-O-(2,3-di-O-acetyl-4-O-sulfo-6-O-levulinoyl-β-D-glucopyranosyl)-(1-3)-2-deoxy-2-trichloroacetamido-4,6-O-benzylidene-α-D-glucopyranoside] | 90 | 95 | 98 | 96 | 36 | 38 | 49 | 66
8 | COc1ccc(O[C@H]2O[C@@H]3COC(c4ccccc4)O[C@H]3[C@H](O[C@@H]3O[C@H](COC(=O)CCC(C)=O)[C@@H](OC(C)=O)[C@H](OC(C)=O)[C@H]3OC(C)=O)[C@H]2NC(=O)C(Cl)(Cl)Cl)cc1 (stereo partly drawn) [RSCL-0625, p-Methoxy phenyl-O-(2,3,4-tri-O-acetyl-6-O-levulinoyl-β-D-glucopyranosyl)-(1-3)-2-deoxy-2-trichloroacetamido-4,6-O-benzylidene-α-D-glucopyranoside] | 90 | 96 | 99 | 97 | 31 | 27 | 22 | 31
9 | COc1ccc(O[C@H]2O[C@@H]3COC(c4ccccc4)O[C@H]3[C@H](O[C@@H]3O[C@H](CO)[C@@H](OC(C)=O)[C@H](OC(C)=O)[C@H]3OC(C)=O)[C@H]2NC(=O)C(Cl)(Cl)Cl)cc1 (stereo partly drawn) [RSCL-0626, p-Methoxy phenyl-O-(2,3,4-tri-O-acetyl-β-D-glucopyranosyl)-(1-3)-2-deoxy-2-trichloroacetamido-4,6-O-benzylidene-α-D-glucopyranoside] | 97 | 92 | 95 | 89 | 39 | 43 | 13 | 52
10 | CC(=O)CCC(=O)OC[C@H]1O[C@@H](O[C@H]2[C@@H]3OC(c4ccccc4)OC[C@H]3OC(O)[C@@H]2NC(=O)C(Cl)(Cl)Cl)[C@H](OC(C)=O)[C@@H](OC(C)=O)[C@@H]1OC(=O)CCl (stereo partly drawn) [RSCL-0627, 2,3-Di-O-acetyl-4-O-chloroacetyl-6-O-levulinoyl-β-D-glucopyranosyl-(1-3)-2-deoxy-2-trichloroacetamido-4,6-O-benzylidene-α/β-D-glucopyranoside] | 105 | 90 | 33 | 13 | 0 | 80 | 104 | 100
11 | COc1ccc(O[C@H]2O[C@@H]3COC(c4ccccc4)O[C@H]3[C@H](O[C@@H]3O[C@H](CO)[C@@H](O)[C@H](OC(C)=O)[C@H]3OC(C)=O)[C@H]2NC(=O)C(Cl)(Cl)Cl)cc1 (stereo partly drawn) [RSCL-0628, p-Methoxy phenyl-O-(2,3-di-O-acetyl-β-D-glucopyranosyl)-(1-3)-2-deoxy-2-trichloroacetamido-4,6-O-benzylidene-α-D-glucopyranoside] | 89 | 60 | 10 | 8 | 0 | 92 | 102 | 100
12 | COc1ccc(O[C@H]2O[C@@H]3COC(c4ccccc4)O[C@H]3[C@H](O[C@@H]3O[C@H](CO)[C@@H](OC(=O)CCl)[C@H](OC(C)=O)[C@H]3OC(C)=O)[C@H]2NC(=O)C(Cl)(Cl)Cl)cc1 (stereo partly drawn) [RSCL-0629, p-Methoxy phenyl-O-(2,3-di-O-acetyl-4-O-chloroacetyl-β-D-glucopyranosyl)-(1-3)-2-deoxy-2-trichloroacetamido-4,6-O-benzylidene-α-D-glucopyranoside] | 99 | 57 | 13 | 11 | 0 | 94 | 102 | 100
13 | COc1ccc(O[C@H]2O[C@@H]3COC(c4ccccc4)O[C@H]3[C@H](O[C@@H]3O[C@H](COC(=O)CCl)[C@@H](OC(C)=O)[C@H](OC(C)=O)[C@H]3OC(C)=O)[C@H]2NC(=O)C(Cl)(Cl)Cl)cc1 (stereo partly drawn) [RSCL-0630, p-Methoxy phenyl-O-(2,3,4-tri-O-acetyl-6-O-chloroacetyl-β-D-glucopyranosyl)-(1-3)-2-deoxy-2-trichloroacetamido-4,6-O-benzylidene-α-D-glucopyranoside] | 95 | 88 | 85 | 81 | 31 | 36 | 61 | 0
14 | COc1ccc(OC2OC3COC(c4ccccc4)OC3C(OC3OC(COC(=O)CCl)C(OC(=O)CCl)C(OC(C)=O)C3OC(C)=O)C2NC(=O)C(Cl)(Cl)Cl)cc1 [RSCL-0631, p-Methoxy phenyl-O-(2,3-di-O-acetyl-4,6-di-O-chloroacetyl-β-D-glucopyranosyl)-(1-3)-2-deoxy-2-trichloroacetamido-4,6-O-benzylidene-α-D-glucopyranoside] | 95 | 70 | 20 | 8 | 77 | 38 | 92 | 99
15 | p-Methoxy phenyl-2-deoxy-2-trichloroacetamido-4,6-O-benzylidene-β-D-glucopyranosyl)-(1-4)-O-(2,3-di-O-acetyl-6-O-levulinoyl-β-D-glucopyranoside [RSCL-0635] | 97 | 89 | 82 | 81 | 0 | 0 | 0 | 0
